This is an account of results in publication PMC12916490 (Molecular Psychiatry, 2025).

By Ki is commonly meant the equilibrium dissociation constant of an inhibitor or competing ligand from its target. High values mean a looser hold on the target, low ones a stronger hold on the target.

T2 sequence (P31645 whole entry): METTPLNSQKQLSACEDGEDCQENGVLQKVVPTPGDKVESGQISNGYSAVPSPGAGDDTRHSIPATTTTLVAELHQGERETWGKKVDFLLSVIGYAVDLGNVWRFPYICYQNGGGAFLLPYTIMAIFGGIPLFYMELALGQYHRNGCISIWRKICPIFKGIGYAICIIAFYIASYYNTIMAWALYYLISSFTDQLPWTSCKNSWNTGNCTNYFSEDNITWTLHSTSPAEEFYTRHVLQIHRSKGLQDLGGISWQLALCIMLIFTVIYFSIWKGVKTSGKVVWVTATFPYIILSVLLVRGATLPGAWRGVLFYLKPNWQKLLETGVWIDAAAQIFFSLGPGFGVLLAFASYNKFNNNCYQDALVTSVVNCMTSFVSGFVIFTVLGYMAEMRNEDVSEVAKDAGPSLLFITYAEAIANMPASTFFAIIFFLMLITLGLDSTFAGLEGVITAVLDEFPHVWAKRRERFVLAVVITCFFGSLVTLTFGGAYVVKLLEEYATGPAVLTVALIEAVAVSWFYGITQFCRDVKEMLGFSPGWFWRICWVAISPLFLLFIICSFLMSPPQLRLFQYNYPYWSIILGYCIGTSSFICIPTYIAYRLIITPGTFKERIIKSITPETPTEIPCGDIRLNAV

In one experiment the target is T1, hα1A (Homo sapiens, UniProt P35348).
T1 construct: expressed in transfected cells; host or cells: Chinese hamster ovary cells (membrane preparation)
T1 sequence (P35348 1-466): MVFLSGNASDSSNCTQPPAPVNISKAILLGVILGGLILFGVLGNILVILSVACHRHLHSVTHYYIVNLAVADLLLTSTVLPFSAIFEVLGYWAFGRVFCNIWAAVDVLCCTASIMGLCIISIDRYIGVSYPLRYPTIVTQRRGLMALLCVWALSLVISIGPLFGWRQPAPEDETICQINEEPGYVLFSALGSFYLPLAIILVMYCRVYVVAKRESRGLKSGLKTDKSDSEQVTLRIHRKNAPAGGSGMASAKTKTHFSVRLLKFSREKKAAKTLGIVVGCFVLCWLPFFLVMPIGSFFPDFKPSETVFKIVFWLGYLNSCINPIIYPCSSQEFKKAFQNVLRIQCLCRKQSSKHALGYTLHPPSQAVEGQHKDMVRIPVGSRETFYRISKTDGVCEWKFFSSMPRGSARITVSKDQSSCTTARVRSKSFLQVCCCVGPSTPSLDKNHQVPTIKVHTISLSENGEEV
The experiment can be described thus: Radioligand binding, hα1A receptor ([3H]prazosin).
Conditions: not given
The procedure: (§1) Binding affinities at human monoamine receptors and transporters were assessed as previously reported. A detailed description of the methodology is provided in the Supplementary information.
(§2) Data analysis was performed with Prism software (version 10.1.2, GraphPad Software, Boston, MA, USA). The IC50 values from the radioligand binding assays were determined by nonlinear regression, using three independent concentration-response curves fitted to a one-site model. The Cheng-Prusoff equation was used to calculate Kᵢ values for the competing ligands. EC50 values were determined by applying nonlinear regression to concentration-response curves. Bias factors (β) were calculated based on the relative intrinsic activity approach. More detailed information can be found in the Supplementary information. Mean values for total number of HTR, change in body temperature from pre to post session (Δ°C), and total distance traveled (cm) for each drug dose were compared (p < 0.05) via Welch’s ANOVA with Dunnett’s T3 post test, comparing all doses to respective vehicle controls (0 mg/kg). Welch’s ANOVA with Dunnett’s T3 post test was also used to compare drug concentrations, but the data were compared to DOM in this case. Dose–response relationships for HTR and locomotor activities were plotted using bell-shaped curve fits, while temperature change data were plotted using four-parameter non-linear regression curve fits. The ascending phase of the HTR curve for each drug was used to determine ED50 potency values from four parameter non-linear regression fits. For combined DOM and DOAM administration, the plasma, brain tissue, and brain dialysate drug concentrations were compared using paired t-tests (p < 0.05). Ratios were compared using Holm-Sidak’s post hoc test following a repeated-measures one-way ANOVA (F (1.709, 6.835) = 70.80; p < 0.0001).
(§3) 3.1 Assessment of receptor and transporter binding affinities
(§4) Membrane preparations were prepared from cells transfected with the respective target. The membrane preparations were then incubated with selective radioligands at concentrations equal to the corresponding Kd and displacement of the ligand by the drugs was measured. The difference between total binding and nonspecific binding (determined in the presence of selective competitors) was defined as specific binding of the radioligand to the target receptor. The following transfected cell lines were used for the binding assays: HEK 293 cells (h5-HT1A, h5-HT2A, h5-HT2B, h5-HT2C, and hD2 receptors, hDAT, hNET, and hSERT), Chinese hamster ovary cells (hα 1A receptor), and Chinese hamster lung cells (hα 2A receptor).
(§5) 3.1.1 Membrane preparations for receptor and transporter binding
(§6) For producing membrane preparations, transfected cells were harvested with trypsin/EDTA, washed with ice-cold phosphate buffered saline, and then pelleted by centrifugation (210 × g for 5 min at 4 °C). The pellets were frozen and stored at -80 °C until use. Frozen pellets were resuspended in 20 m L (receptor binding) or 400 m L (transporter binding) buffer (20 mM HEPES -NaOH, 10 mM EDTA, pH 7.4), and homogenized at 1,100 × g for 20 s (receptor binding) or 560 × g for 15 s (transporter binding); the homogenates were then centrifuged at 48,000 × g for 30 min at 4 °C. For receptor binding assays, the supernatants were discarded and the pellets were resuspended in 20 mL buffer (20 mM HEPES-NaOH, 0.1 mM EDTA, pH 7.4) and homogenized at 1 ,100 × g for 20 s. Centrifugation and discarding of the supernatant were repeated once, and the final pellet was then resuspended in buffer and homogenized.
(§7) 3.1.2 Serotonin 5-HT1A and 5-HT2A receptor binding
Competitive binding at the h5-HT1A and h5-HT2A receptor was determined using 0.90 nM [ 3H]8-hydroxy-2-(di-n-propylamine)tetralin ([ 3H]8-OH-DPAT; h5-HT1A receptor agonist) and 0.40 nM [3H]ketanserin (h5-HT2 receptor antagonist) as radioligands. The density and affinity of [ 3H]8-OH-DPAT […]
Compound `COc1ccc(OC)c(CC(C)N)c1.Cl` (stereo not shown) [2,5-DMA, 2,5-Dimethoxyamphetamine hydrochloride] displayed a Ki of 5.36 µM.
As to `CCCCCc1cc(OC)c(CC(C)N)cc1OC` (stereo not shown) [DOAM, 4-amyl-2,5-dimethoxyamphetamine], affinity was put at a Ki of 2.52 µM.
Same read-out and setting: then `CCCCc1cc(OC)c(CC(C)N)cc1OC` (stereo not shown) [DOBU, 4-butyl-2,5-dimethoxyamphetamine], with 2.1 µM.
In turn, `CCc1cc(OC)c(CC(C)N)cc1OC` (stereo not shown) [DOET, 4-ethyl-2,5-dimethoxyamphetamine] displayed a Ki of 4.01 µM.
`COc1cc(CC(C)N)c(OC)cc1C` (stereo not shown) [DOM, 4-methyl-2,5-dimethoxyamphetamine] yielded a Ki of 7.39 µM.
On the same count and under the same terms, then `CCCc1cc(OC)c(CC(C)N)cc1OC.Cl` (stereo not shown) [DOPR, 4-propyl-2,5-dimethoxyamphetamine hydrochloride], with 6.99 µM.

A further experiment concerns the target T2, hSERT (Homo sapiens, UniProt P31645).
T2 construct: expressed in transfected cells; host or cells: HEK 293 cells (membrane preparation)
As to the kind of experiment: Radioligand binding, hSERT ([3H]citalopram). Conditions: Ki SERT, text value (range DAT and SERT 3.6–4.6). The procedure:
as §1
as §2, with “The” for “Data analysis was performed with Prism software (version 10.1.2, GraphPad Software, Boston, MA, USA). The”, “0.05).” for “0.05). Ratios were compared using Holm-Sidak’s post hoc test following a repeated-measures one-way ANOVA (F (1.709, 6.835) = 70.80; p < 0.0001).”
as §3, §4, §5, §6, §7
Competitive binding at the h5-HT1A and h5-HT2A receptor was determined using 0.90 nM [ 3H]8-hydroxy-2-(di-n-propylamine)tetralin ([ 3H]8-OH-DPAT; h5-HT1A receptor agonist) and 0.40 nM [3H]ketanserin (h5-HT2 receptor antagonist) as radioligands. […]
binding of the radioligands was defined as difference between total binding (binding buffer alone) and nonspecific binding determined in the presence of 10 μM pindolol (h5-HT1A receptor antagonist) or 10 μM spiperone (h 5-HT2A receptor antagonist).
As for `CCCCCc1cc(OC)c(CC(C)N)cc1OC` (stereo not shown) [DOAM, 4-amyl-2,5-dimethoxyamphetamine], the affinity corresponds to a Ki of 4.6 µM.

The same experiment, now with this note: hSERT Ki, mean (95% CI); HEK 293 membranes.
Consider `COc1ccc(OC)c(CC(C)N)c1.Cl` (stereo not shown) [2,5-DMA, 2,5-Dimethoxyamphetamine hydrochloride], for which the Ki is above 7 µM.
Still for that read-out and setting: the same measure for `CCCCCc1cc(OC)c(CC(C)N)cc1OC` (stereo not shown) [DOAM, 4-amyl-2,5-dimethoxyamphetamine]: 4.63 µM.
Take `CCCCc1cc(OC)c(CC(C)N)cc1OC` (stereo not shown) [DOBU, 4-butyl-2,5-dimethoxyamphetamine]: the Ki is above 7 µM.
The compound `CCc1cc(OC)c(CC(C)N)cc1OC` (stereo not shown) [DOET, 4-ethyl-2,5-dimethoxyamphetamine] had a Ki above 7 µM.
`COc1cc(CC(C)N)c(OC)cc1C` (stereo not shown) [DOM, 4-methyl-2,5-dimethoxyamphetamine] gave a Ki above 7 µM.
The compound `CCCc1cc(OC)c(CC(C)N)cc1OC.Cl` (stereo not shown) [DOPR, 4-propyl-2,5-dimethoxyamphetamine hydrochloride] registered a Ki above 7 µM.
